Measurements: patent US11591323B2, “Muscarinic agonists as non-steroidal and non-opioid analgesics and methods of use thereof” (Barry University, priority 2019, dated 2023)

Experiments:
Parameters in all cases: host or cells: CHO cells, stably transfected
M3 muscarinic receptor [1] = target: T1, M3 muscarinic receptor (Homo sapiens, UniProt P20309); assay: [3H]NMS competition binding, M3 CHO membranes; settings: competition with 1 nM [3H]NMS; read-out: Inhibition constants (Ki) as negative logarithms, M3 (converted)
M5 muscarinic receptor [2] = target: T2, M5 muscarinic receptor (Homo sapiens, UniProt P08912); assay: accumulation of IPX, M5 CHO cells (M5Gq); type: cell-based; settings: M5 (↑IPX), preferential response, relative to carbachol; Tables 2, 3, 7
T2 sequence (P08912 1-532): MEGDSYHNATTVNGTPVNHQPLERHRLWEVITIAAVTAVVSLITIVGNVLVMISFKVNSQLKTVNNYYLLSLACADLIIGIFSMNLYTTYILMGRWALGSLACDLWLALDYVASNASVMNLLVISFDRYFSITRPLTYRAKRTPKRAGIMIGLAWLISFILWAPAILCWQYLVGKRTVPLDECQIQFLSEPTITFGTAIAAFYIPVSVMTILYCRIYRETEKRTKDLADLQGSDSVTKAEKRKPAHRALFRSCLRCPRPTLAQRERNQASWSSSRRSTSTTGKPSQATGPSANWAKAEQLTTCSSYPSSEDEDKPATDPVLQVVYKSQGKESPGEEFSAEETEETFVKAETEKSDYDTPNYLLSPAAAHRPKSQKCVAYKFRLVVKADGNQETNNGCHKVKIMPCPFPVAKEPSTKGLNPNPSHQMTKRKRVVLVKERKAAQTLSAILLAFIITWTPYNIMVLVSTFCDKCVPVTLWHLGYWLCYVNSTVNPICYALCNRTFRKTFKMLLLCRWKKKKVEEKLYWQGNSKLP

M1 muscarinic receptor [3] = target: T3, M1 muscarinic receptor (Homo sapiens, UniProt P11229); assay: accumulation of inositol phosphates IPX, M1 CHO cells (M1Gq); type: cell-based; settings: M1 (↑IPX), preferential response, relative to carbachol; Tables 2, 3, 7
T3 sequence (P11229 1-460): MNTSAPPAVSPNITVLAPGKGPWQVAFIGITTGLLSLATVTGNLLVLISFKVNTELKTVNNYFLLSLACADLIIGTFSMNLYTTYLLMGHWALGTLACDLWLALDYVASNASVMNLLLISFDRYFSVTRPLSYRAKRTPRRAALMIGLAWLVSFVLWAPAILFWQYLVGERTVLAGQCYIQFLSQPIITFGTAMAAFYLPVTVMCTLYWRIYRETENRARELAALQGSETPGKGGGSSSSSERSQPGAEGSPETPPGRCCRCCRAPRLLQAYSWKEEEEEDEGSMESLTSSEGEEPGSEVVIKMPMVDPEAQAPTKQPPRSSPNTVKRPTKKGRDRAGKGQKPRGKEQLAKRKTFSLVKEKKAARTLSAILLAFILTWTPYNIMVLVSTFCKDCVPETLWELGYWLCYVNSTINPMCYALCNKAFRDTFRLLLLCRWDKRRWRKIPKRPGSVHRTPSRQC

M4 muscarinic receptor [4] = target: T4, M4 muscarinic receptor (Homo sapiens, UniProt P08173); assay: inhibition of forskolin-stimulated cAMP, M4 CHO cells (M4Gi); type: cell-based; settings: M4 (↓cAMP), preferential response, relative to carbachol; Tables 2, 3, 7
T4 sequence (P08173 1-479): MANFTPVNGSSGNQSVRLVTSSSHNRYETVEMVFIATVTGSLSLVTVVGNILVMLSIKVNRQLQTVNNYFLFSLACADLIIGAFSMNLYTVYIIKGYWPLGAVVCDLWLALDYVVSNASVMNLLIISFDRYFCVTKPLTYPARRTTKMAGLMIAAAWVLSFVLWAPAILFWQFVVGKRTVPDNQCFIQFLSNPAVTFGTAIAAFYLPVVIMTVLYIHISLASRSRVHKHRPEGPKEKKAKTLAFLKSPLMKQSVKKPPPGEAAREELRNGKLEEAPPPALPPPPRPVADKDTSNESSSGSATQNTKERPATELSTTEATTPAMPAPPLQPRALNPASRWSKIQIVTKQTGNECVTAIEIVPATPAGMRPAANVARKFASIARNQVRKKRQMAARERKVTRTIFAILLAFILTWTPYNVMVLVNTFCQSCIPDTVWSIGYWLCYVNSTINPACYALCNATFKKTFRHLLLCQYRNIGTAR

M1 muscarinic receptor [5] = target: T3, M1 muscarinic receptor; assay: [3H]NMS competition binding, M1 CHO membranes; settings: competition with 1 nM [3H]NMS; read-out: Inhibition constants (Ki) as negative logarithms, M1 (converted)
M2 muscarinic receptor [6] = target: T5, M2 muscarinic receptor (Homo sapiens, UniProt P08172); assay: [3H]NMS competition binding, M2 CHO membranes; settings: competition with 1 nM [3H]NMS; read-out: Inhibition constants (Ki) as negative logarithms, M2 (converted)
T5 sequence (P08172 1-466): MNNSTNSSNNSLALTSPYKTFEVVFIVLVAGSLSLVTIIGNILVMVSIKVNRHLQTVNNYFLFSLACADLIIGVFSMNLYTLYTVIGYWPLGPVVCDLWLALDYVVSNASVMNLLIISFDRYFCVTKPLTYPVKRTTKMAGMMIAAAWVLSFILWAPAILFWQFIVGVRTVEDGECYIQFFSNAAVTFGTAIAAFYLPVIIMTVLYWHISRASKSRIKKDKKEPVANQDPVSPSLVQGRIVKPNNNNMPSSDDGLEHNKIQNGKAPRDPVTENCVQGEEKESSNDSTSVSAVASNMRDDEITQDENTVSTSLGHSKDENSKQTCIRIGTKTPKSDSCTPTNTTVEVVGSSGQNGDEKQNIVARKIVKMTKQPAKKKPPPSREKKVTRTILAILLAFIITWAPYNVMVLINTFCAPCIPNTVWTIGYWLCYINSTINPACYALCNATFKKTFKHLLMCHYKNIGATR

M3 muscarinic receptor [7] = target: T1, M3 muscarinic receptor; assay: accumulation of IPX, M3 CHO cells (M3Gq); type: cell-based; settings: M3 (↑IPX), preferential response, relative to carbachol; Tables 2, 3, 7
M5 muscarinic receptor [8] = target: T2, M5 muscarinic receptor; assay: [3H]NMS competition binding, M5 CHO membranes; settings: competition with 1 nM [3H]NMS; read-out: Inhibition constants (Ki) as negative logarithms, M5 (converted)
M4 muscarinic receptor [9] = target: T4, M4 muscarinic receptor; assay: [3H]NMS competition binding, M4 CHO membranes; settings: competition with 1 nM [3H]NMS; read-out: Inhibition constants (Ki) as negative logarithms, M4 (converted)
M2 muscarinic receptor [10] = target: T5, M2 muscarinic receptor; assay: inhibition of forskolin-stimulated cAMP, M2 CHO cells (M2Gi); type: cell-based; settings: M2 (↓cAMP), preferential response, relative to carbachol; Tables 2, 3, 7

T1 sequence (P20309 whole entry): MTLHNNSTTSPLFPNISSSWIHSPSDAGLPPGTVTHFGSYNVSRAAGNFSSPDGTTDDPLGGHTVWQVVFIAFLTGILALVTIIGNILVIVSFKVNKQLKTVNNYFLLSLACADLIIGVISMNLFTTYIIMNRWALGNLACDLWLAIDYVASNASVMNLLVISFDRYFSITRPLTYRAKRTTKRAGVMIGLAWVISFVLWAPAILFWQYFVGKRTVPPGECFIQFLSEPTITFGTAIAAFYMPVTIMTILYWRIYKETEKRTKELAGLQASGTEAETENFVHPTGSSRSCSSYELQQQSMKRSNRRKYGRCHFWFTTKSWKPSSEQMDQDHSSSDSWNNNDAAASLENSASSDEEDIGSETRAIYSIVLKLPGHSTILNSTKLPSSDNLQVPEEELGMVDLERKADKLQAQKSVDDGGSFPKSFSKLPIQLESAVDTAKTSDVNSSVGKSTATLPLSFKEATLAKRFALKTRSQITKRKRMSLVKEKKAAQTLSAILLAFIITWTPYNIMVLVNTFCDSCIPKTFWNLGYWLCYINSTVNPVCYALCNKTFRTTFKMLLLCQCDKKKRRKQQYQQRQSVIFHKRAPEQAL

Cc1csc(CN2CC=CCC2)c1.Cl [Compound 6E, 1-[(4-methylthiophen-2-yl)methyl]-1,2,3,6-tetrahydropyridin-1-ium chloride] gave a Ki (M3 muscarinic receptor [1]) of 50.1 µM, an RAi (M5 muscarinic receptor [2]) of 0 and an RAi (M1 muscarinic receptor [3]) of 0. It also gave an RAi (M4 muscarinic receptor [4]) of 0, a Ki (M1 muscarinic receptor [5]) of 31.6 µM and a Ki (M2 muscarinic receptor [6]) of 12.6 µM. The RAi (M3 muscarinic receptor [7]) was 0, the Ki (M5 muscarinic receptor [8]) was 31.6 µM and the Ki (M4 muscarinic receptor [9]) was 31.6 µM. For the same compound, the RAi (M2 muscarinic receptor [10]) was 0.
